How the values were obtained:
Male Swiss mice [1] = assay: Hot plate method, analgesic activity in mice; type: in vivo; conditions: for % response time increase on hot plate: 20 μmol/kg, oral adm., n = 20-40; for % response time increase: hot plate, 15 mg/kg, intraperitoneal adm., n = 20
Method: The method that was used is described by Eddy N. B. and Leimbach D. (J. Pharm. Exp. Ther. 107: 385-393, 1953). The analgesic effect of the products was evaluated analysing the behaviour of the animals on a hot surface at 55° C.±1° C.
Male Swiss mice weighing 20-25 g were used. The compounds being tested were administered orally or intraperitoneally 1 hour ∘ 30 minutes before starting the test, respectively.
The process consisted of placing the animals on the plate and keeping them in a Plexiglas cylinder 25 cm high and 21 cm […]. The time the animals took to jump off the hot surface was determined. The animals were selected before starting the test so that those that took longer than 10 seconds to jump off were not included in the group that would receive treatment.
30 minutes after administering the product being tested, the test was repeated and the maximum time it took the animals to jump off was again recorded.
The results are expressed as the % of jump time increase calculated as follows: [formula]
In order to determine the duration of the analgesic effect of the orally administered products, the analgesic activity was evaluated on the hot plate 1, 3, 6, 8, and 24 hours after the administration of the product, as well as the control group which received treatment only with the vehicle. The base responses were evaluated at 30 and 5 minutes prior to administering the products.

Male Swiss mice [2] = assay: Determination of the DL50 (acute single dose oral toxicity); type: in vivo; conditions: oral adm., 14 days observation
Method: (EUDRA/S/87/011, Single Dose Toxicity, European Directive 75/318/EEC) (ICH S4, Toxicity Studies, single dose and repeated dose, CPMP vol III February 87, Single dose toxicity)
Male Swiss mice of the same batch weighing 20-25 g are used in order to estimate the acute toxicity of the products.
Prior to administering the products, the animals were forced to fast for 12 hours with no intake of food but free access to water. Several subgroups of 10 animals were randomly selected and orally given increasing doses of the products in single administration, after which they remained under observation for a period of 14 days with free access to water and food. Finally, the number of dead animals of each subgroup was quantified and the value of the DL50 was calculated (1-2).

CC(C)Cc1ccc(C(C)C(=O)Oc2cccc(C3(O)CCCCC3CN(C)C)c2)cc1 (stereo not drawn) [EXAMPLE 1, 3-(2-dimethylaminomethyl-1-hydroxy-cyclohexyl)-phenyl 2-(4-isobutyl-phenyl)-propionate]
% response time increase on hot plate (Male Swiss mice [1]): 210 ± 88%
% response time increase (Male Swiss mice [1]): 568 ± 100%
DL50 approx. (Male Swiss mice [2]): ~900 mg/kg

COc1ccc2cc(C(C)C(=O)Oc3cccc(C4=C(CN(C)C)CCCC4)c3)ccc2c1 (stereo not drawn) [EXAMPLE 5, 3-(2-dimethylaminomethyl-cyclohex-1-enyl)-phenyl 2-(6-methoxy-naphthalen-2-yl)-propionate]
% response time increase (Male Swiss mice [1]): 356 ± 151%

CC(C)Cc1ccc(C(C)C(=O)Oc2cccc(C3=C(CN(C)C)CCCC3)c2)cc1 (stereo not drawn) [EXAMPLE 4, 3-(2-dimethylaminomethyl-cyclohex-1-enyl)-phenyl 2-(4-isobutyl-phenyl)-propionate]
% response time increase (Male Swiss mice [1]): 333 ± 134%

CN(C)CC1CCCCC1(O)c1cccc(OC(=O)c2ccccc2OC(=O)N(C)C)c1 (stereo not drawn) [EXAMPLE 8, 3-(2-dimethylaminomethyl-1-hydroxy-cyclohexyl)-phenyl (RR—SS)-2-dimethylcarbamoyloxy-benzoate]
% response time increase (Male Swiss mice [1]): 327 ± 65%

CN(C)CC1=C(c2cccc(OC(=O)c3ccccc3O)c2)CCCC1 [EXAMPLE 7, 3-(2-dimethylaminomethyl-cyclohex-1-enyl)-phenyl 2-hydroxybenzoate]
% response time increase (Male Swiss mice [1]): 634 ± 42%

COc1cccc(C2(O)CCCCC2CN(C)C)c1 (single isomer, unassigned) [Tramadol, (1R, 2R or 1S, 2S)-2-[(dimethylamino)methyl]-1-(3-methoxyphenyl) cyclohexano, reference compound]
% response time increase on hot plate (Male Swiss mice [1]): 87 ± 23%
% response time increase (Male Swiss mice [1]): 218 ± 98%
DL50 approx. (Male Swiss mice [2]): ~350 mg/kg

CN(C)CC1CCCCC1(O)c1cccc(OC(=O)c2ccccc2O)c1 (stereo not drawn) [EXAMPLE 6, 3-(2-dimethylaminomethyl-1-hydroxy-cyclohexyl)-phenyl (RR-SS)-2-hydroxybenzoate]
% response time increase on hot plate (Male Swiss mice [1]): 248 ± 72%
% response time increase (Male Swiss mice [1]): 546 ± 63%
DL50 approx. (Male Swiss mice [2]): ~550 mg/kg

COc1ccc2cc(C(C)C(=O)Oc3cccc(C4(O)CCCCC4CN(C)C)c3)ccc2c1 (stereo not drawn) [EXAMPLE 2, 3-(2-dim-ethylaminomethyl-1-hydroxy-cyclohexyl)-phenyl 2-(6-methoxy-naphthalen-2-yl)-propionate]
% response time increase (Male Swiss mice [1]): 539 ± 50%

CN(C)CC1CCCCC1(O)c1cccc(OC(=O)C2CCn3c(C(=O)c4ccccc4)ccc32)c1 (stereo not drawn) [EXAMPLE 3, 3-(2-dimethylaminomethyl-1-hydroxy-cyclohexyl)-phenyl 5-benzoyl-2,3-dihydro-1H-pyrrolizine-1-carboxylate]
% response time increase (Male Swiss mice [1]): 416 ± 146%
